Assay results reported in patent publication US7718809B2, “Chromane substituted benzimidazole derivatives as acid pump antagonists” (RaQualia Pharma Inc., priority 2005, dated 2010).

What follows are compounds tested on gastric acid secretion (assay: Inhibition of gastric acid secretion in the Heidenhain pouch dog). Conditions: histamine-stimulated (80 μg/kg/h) acid secretion, oral or intravenous bolus administration.
Assay type: in vivo, Beagle dogs
Method: Male Beagle dogs weighing 7-15 kg with Heidenhain pouch [Heidenhain R: Arch Ges Physiol. 1879; 19: 148-167] were used. The animals were allowed to recover from surgery for at least three weeks before the experiments. The animals were kept at a 12 hour light-dark rhythm, housed singly. They received standard food once daily at 11:00 a.m. and tap water ad libitum, and were fasted overnight prior to the experiment, with free access to water. Gastric juice samples were collected throughout the experiment by gravity drainage every 15 min. Acidity in the gastric juice was measured by titration to the end point of pH 7.0. Acid secretion was stimulated by a continuous intravenous infusion of histamine (80 μg/kg/h). Oral or intravenous bolus administration of the test compounds was done 90 minutes after commencement of the histamine infusion. The acid secretion was monitored after the administration. The activity was evaluated by the maximum inhibition relative to the corresponding control value.

Compound | inhibitory activity (maximum inhibition of acid secretion relative to control)
Cc1nc2c(OC3CCOc4cc(F)cc(F)c43)cc(C(=O)N(C)C)cc2n1C (single isomer, unassigned; (-)) [Example 6, (−)-4-[(5,7-Difluoro-3,4-dihydro-2H-chromen-4-yl)oxy]-N,N,1,2-tetramethyl-1H-benzimidazole-6-carboxamide] | good inhibitory activity

The compounds below were run against T1, porcine gastric H+/K+-ATPase (Sus scrofa, UniProt P19156) (assay: Ion-tight porcine gastric H+/K+-ATPase inhibition). Conditions: ion-tight gastric vesicles, 150 mM KCl, valinomycin, pH 7.4, 37° C.
T1 construct: prepared from mucous membrane in fresh porcine stomachs by homogenization; from tissue; host or cells: mucous membrane of fresh porcine stomachs (gastric vesicles)
Assay type: biochemical
Method: The porcine gastric vesicles for Porcine gastric H^+/K^+-ATPase inhibition assays were prepared from mucous membrane in fresh porcine stomachs by homogenization with a tight-fitted polytetrafluoroethylene (Teflone®) homogenizer in 0.25 M sucrose at 4° C. The crude pellet was removed with centrifugation at 20,000 g for 30 min. Then supernatant was centrifuged at 100,000 g for 30 min. The resulting pellet was re-suspended in 0.25 M sucrose, and then subjected to density gradient centrifugation at 132,000 g for 90 min. The gastric vesicles were collected from interface on 0.25 M sucrose layer containing 7% Ficoll™ PM400(Amersham Biosciences). This procedure was performed in a cold room.
Ion-tight porcine gastric H^+/K^+-ATPase inhibition was measured according to the modified method described in Biochemical Pharmacology, 1988, 37, 2231-2236.
The isolated vesicles were kept in deep-freezer until use. For enzyme assay, vesicles were diluted with 3 mM MgSO4 containing 5 mM Tris (pH 7.4 at 37° C).
Enzyme reaction was performed incubating 150 mM KCl, 3 mM Na2ATP, 3 mM MgSO4, 15 μM valinomycin and 3.0 μg of vesicles for 30 minutes at 37° C. in a final 60 μl of reaction mixture (5 mM Tris, pH 7.4) with or without the test compound. Enzyme reaction was stopped by adding 10% SDS. Released inorganic phosphate from ATP was detected by incubating with mixture of 1 part of 35 mM ammonium molybdate tetrahydrate in 15 mM Zinc acetate hydrate and 4 parts of 10% ascorbic acid (pH 5.0), resulting in phosphomolybdate, which has optical density at 750 nm.

T1 sequence (P19156 2-1034 limits assumed): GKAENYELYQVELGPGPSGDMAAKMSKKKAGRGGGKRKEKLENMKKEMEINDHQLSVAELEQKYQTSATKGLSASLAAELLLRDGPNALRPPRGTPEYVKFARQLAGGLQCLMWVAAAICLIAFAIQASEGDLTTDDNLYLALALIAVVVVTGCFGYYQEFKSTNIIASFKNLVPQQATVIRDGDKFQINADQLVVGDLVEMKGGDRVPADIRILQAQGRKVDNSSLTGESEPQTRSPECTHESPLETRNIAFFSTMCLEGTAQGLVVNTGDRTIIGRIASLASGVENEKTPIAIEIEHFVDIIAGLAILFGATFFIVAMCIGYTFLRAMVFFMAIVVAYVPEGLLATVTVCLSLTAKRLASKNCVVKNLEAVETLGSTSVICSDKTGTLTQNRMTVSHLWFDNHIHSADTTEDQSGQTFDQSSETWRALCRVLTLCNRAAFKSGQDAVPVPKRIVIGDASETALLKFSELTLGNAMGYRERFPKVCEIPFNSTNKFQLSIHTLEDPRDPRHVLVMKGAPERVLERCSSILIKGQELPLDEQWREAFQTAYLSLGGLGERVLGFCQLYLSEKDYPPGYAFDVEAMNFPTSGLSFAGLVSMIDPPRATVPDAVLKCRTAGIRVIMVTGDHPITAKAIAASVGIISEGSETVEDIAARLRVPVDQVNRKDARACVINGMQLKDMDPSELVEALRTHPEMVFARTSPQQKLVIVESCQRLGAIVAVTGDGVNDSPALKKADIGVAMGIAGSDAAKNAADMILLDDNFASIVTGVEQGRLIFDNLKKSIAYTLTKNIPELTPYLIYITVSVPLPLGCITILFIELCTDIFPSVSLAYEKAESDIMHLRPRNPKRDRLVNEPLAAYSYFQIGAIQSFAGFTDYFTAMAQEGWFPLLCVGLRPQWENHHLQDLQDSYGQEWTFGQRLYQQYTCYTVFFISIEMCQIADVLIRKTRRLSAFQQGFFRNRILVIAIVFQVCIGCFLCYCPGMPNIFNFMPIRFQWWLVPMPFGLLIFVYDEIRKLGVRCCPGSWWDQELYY
T1 sequence (P18434 whole entry partner): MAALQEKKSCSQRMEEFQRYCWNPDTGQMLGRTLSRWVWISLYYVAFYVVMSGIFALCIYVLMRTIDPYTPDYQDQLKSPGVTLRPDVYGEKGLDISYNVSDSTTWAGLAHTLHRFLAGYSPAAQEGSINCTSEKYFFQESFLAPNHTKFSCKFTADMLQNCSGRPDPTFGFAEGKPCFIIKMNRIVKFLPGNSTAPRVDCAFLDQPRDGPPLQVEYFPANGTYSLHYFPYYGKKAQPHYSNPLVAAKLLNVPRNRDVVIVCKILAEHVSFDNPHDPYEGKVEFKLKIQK

Compound | IC50 [nM]
Cc1nc2c(OC3CCOc4cc(F)ccc43)cc(C(=O)N(C)C)cc2n1C (racemic) [Example 2, 4-[(7-Fluoro-3,4-dihydro-2H-chromen-4-yl)oxy]-N,N,1,2-tetramethyl-1H-benzimidazole-6-carboxamide] | 69
Cc1nc2c(OC3CCOc4cc(F)cc(F)c43)cc(C(=O)N(C)C)cc2n1C (racemic) [Example 5, 4-[(5,7-Difluoro-3,4-dihydro-2H-chromen-4-yl)oxy]-N,N,1,2-tetramethyl-1H-benzimidazole-6-carboxamide] | 90
Cc1nc2c(OC3CCOc4cccc(F)c43)cc(C(=O)N(C)C)cc2n1C (racemic) [Example 9, 4-[(5-Fluoro-3,4-dihydro-2H-chromen-4-yl)oxy]-N,N,1,2-tetramethyl-1H-benzimidazole-6-carboxamide] | 960
Cc1nc2c(OC3CCOc4cc(F)cc(F)c43)cc(C(=O)N3CCC3)cc2n1C (racemic) [Example 22, 6-(Azetidin-1-ylcarbonyl)-4-[(5,7-difluoro-3,4-dihydro-2H-chromen-4-yl)oxy]-1,2-dimethyl-1H-benzimidazole] | 180
Cc1nc2c(OC3CCOc4cc(F)cc(F)c43)cc(C(=O)N(C)C)cc2n1C (single isomer, unassigned; (+)) [Example 7, (+)-4-[(5,7-Difluoro-3,4-dihydro-2H-chromen-4-yl)oxy]-N,N,1,2-tetramethyl-1H-benzimidazole-6-carboxamide] | 220
Cc1nc2c(OC3CCOc4cccc(F)c43)cc(C(=O)N(C)C)cc2n1C (single isomer, unassigned; (+)) [Example 18, (+)-4-{[5-Fluoro-3,4-dihydro-2H-chromen-4-yl]oxy}-N,N,1,2-tetramethyl-1H-benzimidazole-6-carboxamide] | 240
CNC(=O)c1cc(OC2CCOc3cc(F)cc(F)c32)c2nc(C)n(C)c2c1 (single isomer, unassigned; (+)) [Example 21, (+)-4-[(5,7-Difluoro-3,4-dihydro-2H-chromen-4-yl)oxy]-N,1,2-trimethyl-1H-benzimidazole-6-carboxamide] | 490
Cc1nc2c(OC3CCOc4cc(F)cc(F)c43)cc(C(=O)N3CCC3)cc2n1C (single isomer, unassigned; (+)) [Example 24, (+)-6-(Azetidin-1-ylcarbonyl)-4-[(5,7-difluoro-3,4-dihydro-2H-chromen-4yl)oxy]-1,2-dimethyl-1H-benzimidazole] | 620
Cc1nc2c(OC3CCOc4cccc(F)c43)cc(C(=O)N(C)C)cc2n1C (single isomer, unassigned; (-)) [Example 17, (−)-4-{[5-Fluoro-3,4-dihydro-2H-chromen-4-yl]oxy}-N,N,1,2-tetramethyl-1H-benzimidazole-6-carboxamide] | 340
Cc1nc2c(OC3CCOc4cc(F)cc(F)c43)cc(C(=O)N3CCC3)cc2n1C (single isomer, unassigned; (-)) [Example 23, (−)-6-(Azetidin-1-ylcarbonyl)-4-[(5,7-difluoro-3,4-dihydro-2H-chromen-4-yl)oxy]-1,2-dimethyl-1H-benzimidazole] | 440
Cc1nc2c(OC3CCOc4ccccc43)cc(C(=O)N(C)C)cc2n1C (stereo not drawn) [Example 1, 4-(3,4-Dihydro-2H-chromen-4-yloxy)-N,N,1,2-tetramethyl-1H-benzimidazole-6-carboxamide] | 560
Cc1nc2c(OC3COCc4ccccc43)cc(C(=O)N(C)C)cc2n1C (stereo not drawn) [Example 10, 4-(3,4-Dihydro-1H-isochromen-4-yloxy)-N,N,1,2-tetramethvl-1H-benzimidazole-6-carboxamide] | 320
Cc1nc2c(OC3CCOc4ccccc43)cc(C(=O)N3CC[C@H](O)C3)cc2n1C (stereo partly drawn) [Example 12, (3S)-1-{[4-(3,4-Dihydro-2H-chromen-4-yloxy)-1,2-dimethyl-1H-benzimidazol-6-yl]carbonyl}pyrrolidin-3-ol] | 670
Cc1nc2c(OC3CCOc4ccccc43)cc(C(=O)N3CCC[C@@H]3CO)cc2n1C (stereo partly drawn) [Example 14] | 980
CC(=O)N1CCN(C(=O)c2cc(OC3CCOc4ccccc43)c3nc(C)n(C)c3c2)CC1 (stereo not drawn) [Example 16, 6-[(4-Acetylpiperazin-1-yl)carbonyl]-4-(3,4-dihydro-2H-chromen-4-yloxy)-1,2-dimethyl-1H-benzimidazole] | 140
Cc1nc2c(OC3CCOc4cc(F)cc(F)c43)cc(C(=O)N3CCCC3)cc2n1C (stereo not drawn) [Example 25, 4-[(5,7-Difluoro-3,4-dihydro-2H-chromen-4-yl)oxy]-1,2-dimethyl-6-(pyrrolidin-1-ylcarbonyl)-1H-benzimidazole] | 590
Cc1nc2c(OC3CCOc4cc(F)cc(F)c43)cc(C(=O)N3CC(C)(O)C3)cc2n1C (stereo not drawn) [Example 26, 1-({4-[(5,7-Difluoro-3,4-dihydro-2H-chromen-4-yl)oxy]-1,2-dimethyl-1H-benzimidazol-6-yl}carbonyl)-3-methylazetidin-3-ol] | 480

Continued by falling IC50, values first:

IC50 [nM] | Compound
950 | Cc1nc2c(OC3CCOc4ccccc43)cc(C(=O)N3CCN(C)CC3)cc2n1C (stereo not drawn) [Example 15, 4-(3,4-Dihydro-2H-chromen-4-yloxy)-1,2-dimethyl-6-[(4-methylpiperazin-1-yl)carbonyl]-1H-benzimidazole]
680 | CNC(=O)c1cc(OC2CCOc3cc(F)cc(F)c32)c2nc(C)n(C)c2c1 (racemic) [Example 19, 4-[(5,7-Difluoro-3,4-dihydro-2H-chromen-4-yl)oxy]-N,1,2-trimethyl-1H-benzimidazole-6-carboxamide]
610 | CNC(=O)c1cc(OC2CCOc3cc(F)cc(F)c32)c2nc(C)n(C)c2c1 (single isomer, unassigned; (-)) [Example 20, (−)-4-[(5,7-Difluoro-3,4-dihydro-2H-chromen-4-yl)oxy]-N,1,2-trimethyl-1H-benzimidazole-6-carboxamide]
440 | Cc1nc2c(OC3CCOc4cc(F)ccc43)cc(C(=O)N(C)C)cc2n1C (single isomer, unassigned; (+)) [Example 4, (+)-4-[(7-Fluoro-3,4-dihydro-2H-chromen-4-yl)oxy]-N,N,1,2-tetramethyl-1H-benzimidazole-6-carboxamide]
440 | Cc1nc2c(OC3CCOc4cc(F)ccc43)cc(C(=O)N(C)C)cc2n1C (single isomer, unassigned; (-)) [Example 3, (−)-4-[(7-Fluoro-3,4-dihydro-2H-chromen-4-yl)oxy]-N,N,1,2-tetramethvl-1H-benzimidazole-6-carboxamide]
430 | Cc1nc2c(OC3CCOc4ccccc43)cc(C(=O)N(C)CCO)cc2n1C (stereo not drawn) [Example 11, 4-(3,4-Dihydro-2H-chromen-4-yloxy)-N-(2-hydroxyethyl)-N,1,2-trimethyl-1H-benzimidazole-6-carboxamide]
210 | Cc1nc2c(OC3CCOc4cc(F)cc(F)c43)cc(C(=O)N(C)C)cc2n1C (single isomer, unassigned; (-)) [Example 6, (−)-4-[(5,7-Difluoro-3,4-dihydro-2H-chromen-4-yl)oxy]-N,N,1,2-tetramethyl-1H-benzimidazole-6-carboxamide]
180 | Cc1cccc2c1C(Oc1cc(C(=O)N(C)C)cc3c1nc(C)n3C)CCO2 (stereo not drawn) [Example 8, N,N,1,2-Tetramethyl-4-[(5-methyl-3,4-dihydro-2H-chromen-4-yl)oxy]-1H-benzimidazole-6-carboxamide]
120 | Cc1nc2c(OC3CCOc4ccccc43)cc(C(=O)N3CC[C@@H](O)C3)cc2n1C (stereo partly drawn) [Example 13, (3R)-1-{[4-(3,4-Dihydro-2H-chromen-4-yloxy)-1,2-dimethyl-1H-benzimidazol-6-yl]carbonyl}pyrrolidin-3-ol]
